Legend:
Assay type in all cases: cell-based
Conditions in all cases: 24 hours of compound treatment, 50 nM and 500 nM
[1] = molecular target: T1, IKZF3 (Homo sapiens, UniProt Q96SW2+Q9UKT9); experiment: Western-blot assay, substrate protein degradation in hPBMCs: IKZF3
T1 construct: effects of the compounds of the present disclosure on the expression of target proteins in cells; endogenous in cells; host or cells: human PBMCs (hPBMCs)

[2] = molecular target: T2, IKZF2 (Homo sapiens, UniProt Q96SW2+Q9UKS7); experiment: Western-blot assay, substrate protein degradation in hPBMCs: IKZF2
T2 construct: effects of the compounds of the present disclosure on the expression of target proteins in cells; endogenous in cells; host or cells: human PBMCs (hPBMCs)

[3] = molecular target: T3, GSPT1 (Homo sapiens, UniProt P15170+Q96SW2); experiment: Western-blot assay, substrate protein degradation in hPBMCs: GSPT1
T3 construct: effects of the compounds of the present disclosure on the expression of target proteins in cells; endogenous in cells; host or cells: human PBMCs (hPBMCs)

[4] = molecular target: T4, IKZF1 (Homo sapiens, UniProt Q13422+Q96SW2); experiment: Western-blot assay, substrate protein degradation in hPBMCs: IKZF1
T4 construct: effects of the compounds of the present disclosure on the expression of target proteins in cells; endogenous in cells; host or cells: human PBMCs (hPBMCs)

[5] = molecular target: T5, WEE1 (Homo sapiens, UniProt P30291+Q96SW2); experiment: Western-blot assay, substrate protein degradation in hPBMCs: WEE1
T5 construct: effects of the compounds of the present disclosure on the expression of target proteins in cells; endogenous in cells; host or cells: human PBMCs (hPBMCs)

[6] = molecular target: T6, CK1α (Homo sapiens, UniProt P48729+Q96SW2); experiment: Western-blot assay, substrate protein degradation in hPBMCs: CK1α
T6 construct: effects of the compounds of the present disclosure on the expression of target proteins in cells; endogenous in cells; host or cells: human PBMCs (hPBMCs)
T6 sequence (P48729 whole entry): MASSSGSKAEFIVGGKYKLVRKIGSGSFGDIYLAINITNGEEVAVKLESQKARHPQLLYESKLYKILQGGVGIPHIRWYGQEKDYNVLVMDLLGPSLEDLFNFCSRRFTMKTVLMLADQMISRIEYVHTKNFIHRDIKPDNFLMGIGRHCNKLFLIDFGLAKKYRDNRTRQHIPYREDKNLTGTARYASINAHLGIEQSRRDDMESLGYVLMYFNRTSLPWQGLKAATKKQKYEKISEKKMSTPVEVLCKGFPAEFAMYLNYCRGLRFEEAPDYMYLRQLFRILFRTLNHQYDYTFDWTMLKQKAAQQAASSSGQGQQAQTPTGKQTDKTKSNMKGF
T6 sequence (Q96SW2 whole entry): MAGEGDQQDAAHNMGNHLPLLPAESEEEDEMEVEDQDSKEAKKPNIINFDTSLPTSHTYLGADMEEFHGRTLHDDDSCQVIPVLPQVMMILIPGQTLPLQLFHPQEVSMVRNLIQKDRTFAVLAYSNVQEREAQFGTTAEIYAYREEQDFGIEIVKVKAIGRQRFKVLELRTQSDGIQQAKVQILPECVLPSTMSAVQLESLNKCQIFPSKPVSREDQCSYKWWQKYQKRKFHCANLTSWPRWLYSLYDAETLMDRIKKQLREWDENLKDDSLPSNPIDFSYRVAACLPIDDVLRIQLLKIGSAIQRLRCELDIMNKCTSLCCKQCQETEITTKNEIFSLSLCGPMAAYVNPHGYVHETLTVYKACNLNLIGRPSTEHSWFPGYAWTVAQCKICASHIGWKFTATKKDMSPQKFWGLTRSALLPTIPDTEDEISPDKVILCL
T6 sequence (Q16531 whole entry partner): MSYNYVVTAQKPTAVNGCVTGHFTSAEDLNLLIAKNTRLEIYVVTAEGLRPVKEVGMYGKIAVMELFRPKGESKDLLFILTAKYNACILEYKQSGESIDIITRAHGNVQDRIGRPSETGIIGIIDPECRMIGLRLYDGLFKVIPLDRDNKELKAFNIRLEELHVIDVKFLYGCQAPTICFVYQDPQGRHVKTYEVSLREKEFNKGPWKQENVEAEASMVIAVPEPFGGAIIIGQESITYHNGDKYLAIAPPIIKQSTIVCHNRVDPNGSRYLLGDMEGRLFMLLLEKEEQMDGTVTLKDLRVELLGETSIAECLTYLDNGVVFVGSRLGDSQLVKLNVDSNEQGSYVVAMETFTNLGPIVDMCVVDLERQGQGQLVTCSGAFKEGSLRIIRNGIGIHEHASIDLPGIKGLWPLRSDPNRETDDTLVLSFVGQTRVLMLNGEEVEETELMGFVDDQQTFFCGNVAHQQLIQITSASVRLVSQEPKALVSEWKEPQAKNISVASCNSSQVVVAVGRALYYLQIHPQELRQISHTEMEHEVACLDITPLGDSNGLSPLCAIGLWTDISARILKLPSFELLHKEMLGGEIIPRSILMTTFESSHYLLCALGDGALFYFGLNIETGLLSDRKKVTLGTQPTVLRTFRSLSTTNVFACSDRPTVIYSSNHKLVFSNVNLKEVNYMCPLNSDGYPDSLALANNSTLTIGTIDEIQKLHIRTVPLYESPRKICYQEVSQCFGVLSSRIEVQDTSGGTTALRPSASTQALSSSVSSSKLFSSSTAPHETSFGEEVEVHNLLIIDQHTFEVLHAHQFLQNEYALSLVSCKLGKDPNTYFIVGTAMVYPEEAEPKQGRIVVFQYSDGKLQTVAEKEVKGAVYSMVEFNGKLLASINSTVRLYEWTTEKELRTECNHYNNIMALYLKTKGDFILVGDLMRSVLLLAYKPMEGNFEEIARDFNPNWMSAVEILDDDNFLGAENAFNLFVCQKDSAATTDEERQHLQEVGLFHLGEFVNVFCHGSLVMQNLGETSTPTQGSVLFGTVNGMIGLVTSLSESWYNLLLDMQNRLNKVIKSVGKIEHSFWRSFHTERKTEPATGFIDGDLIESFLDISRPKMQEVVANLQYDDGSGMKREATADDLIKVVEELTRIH

T1 sequence (Q9UKT9 whole entry): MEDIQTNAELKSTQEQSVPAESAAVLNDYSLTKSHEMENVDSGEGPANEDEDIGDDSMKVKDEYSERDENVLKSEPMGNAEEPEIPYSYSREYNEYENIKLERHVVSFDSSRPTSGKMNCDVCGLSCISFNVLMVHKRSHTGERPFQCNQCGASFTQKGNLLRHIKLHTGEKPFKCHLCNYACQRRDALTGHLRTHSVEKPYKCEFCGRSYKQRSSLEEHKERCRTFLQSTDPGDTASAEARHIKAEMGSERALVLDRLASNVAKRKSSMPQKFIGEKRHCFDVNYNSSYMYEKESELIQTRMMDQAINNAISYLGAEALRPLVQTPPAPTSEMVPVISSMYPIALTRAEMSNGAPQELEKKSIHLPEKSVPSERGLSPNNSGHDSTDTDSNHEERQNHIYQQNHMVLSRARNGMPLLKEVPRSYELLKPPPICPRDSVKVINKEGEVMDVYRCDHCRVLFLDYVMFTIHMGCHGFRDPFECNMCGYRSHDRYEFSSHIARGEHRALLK
T1 sequence (Q96SW2 whole entry): as the sequence (Q96SW2 whole entry) above
T1 sequence (Q16531 whole entry partner): as the sequence (Q16531 whole entry partner) above
T3 sequence (P15170 whole entry): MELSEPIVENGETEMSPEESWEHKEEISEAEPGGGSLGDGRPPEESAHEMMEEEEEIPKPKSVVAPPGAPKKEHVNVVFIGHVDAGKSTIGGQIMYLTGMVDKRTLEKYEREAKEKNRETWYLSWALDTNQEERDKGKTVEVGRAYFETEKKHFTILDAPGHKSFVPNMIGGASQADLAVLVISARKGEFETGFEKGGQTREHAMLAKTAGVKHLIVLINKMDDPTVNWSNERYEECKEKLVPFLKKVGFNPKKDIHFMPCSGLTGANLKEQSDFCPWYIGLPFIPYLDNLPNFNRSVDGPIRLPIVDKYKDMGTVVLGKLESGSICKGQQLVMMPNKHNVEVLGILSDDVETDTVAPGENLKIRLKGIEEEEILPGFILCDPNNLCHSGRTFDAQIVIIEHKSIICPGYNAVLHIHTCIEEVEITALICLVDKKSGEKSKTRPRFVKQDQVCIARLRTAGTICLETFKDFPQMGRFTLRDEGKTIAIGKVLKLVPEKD
T3 sequence (Q96SW2 whole entry): as the sequence (Q96SW2 whole entry) above
T3 sequence (Q16531 whole entry partner): as the sequence (Q16531 whole entry partner) above
T2 sequence (Q9UKS7 whole entry): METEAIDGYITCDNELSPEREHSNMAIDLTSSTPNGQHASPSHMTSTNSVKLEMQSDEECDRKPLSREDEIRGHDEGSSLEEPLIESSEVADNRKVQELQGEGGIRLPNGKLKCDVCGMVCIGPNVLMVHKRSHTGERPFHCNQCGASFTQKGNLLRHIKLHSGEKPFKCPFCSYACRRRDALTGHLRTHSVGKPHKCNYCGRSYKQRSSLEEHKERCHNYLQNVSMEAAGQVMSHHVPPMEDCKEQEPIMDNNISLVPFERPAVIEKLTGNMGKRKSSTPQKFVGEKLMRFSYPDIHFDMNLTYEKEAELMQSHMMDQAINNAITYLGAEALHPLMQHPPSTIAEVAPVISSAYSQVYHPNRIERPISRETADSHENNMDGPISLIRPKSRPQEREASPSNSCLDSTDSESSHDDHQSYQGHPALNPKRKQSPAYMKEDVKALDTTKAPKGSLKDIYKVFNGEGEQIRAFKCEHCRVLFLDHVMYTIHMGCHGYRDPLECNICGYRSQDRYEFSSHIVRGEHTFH
T2 sequence (Q96SW2 whole entry): as the sequence (Q96SW2 whole entry) above
T2 sequence (Q16531 whole entry partner): as the sequence (Q16531 whole entry partner) above
T5 sequence (P30291 whole entry): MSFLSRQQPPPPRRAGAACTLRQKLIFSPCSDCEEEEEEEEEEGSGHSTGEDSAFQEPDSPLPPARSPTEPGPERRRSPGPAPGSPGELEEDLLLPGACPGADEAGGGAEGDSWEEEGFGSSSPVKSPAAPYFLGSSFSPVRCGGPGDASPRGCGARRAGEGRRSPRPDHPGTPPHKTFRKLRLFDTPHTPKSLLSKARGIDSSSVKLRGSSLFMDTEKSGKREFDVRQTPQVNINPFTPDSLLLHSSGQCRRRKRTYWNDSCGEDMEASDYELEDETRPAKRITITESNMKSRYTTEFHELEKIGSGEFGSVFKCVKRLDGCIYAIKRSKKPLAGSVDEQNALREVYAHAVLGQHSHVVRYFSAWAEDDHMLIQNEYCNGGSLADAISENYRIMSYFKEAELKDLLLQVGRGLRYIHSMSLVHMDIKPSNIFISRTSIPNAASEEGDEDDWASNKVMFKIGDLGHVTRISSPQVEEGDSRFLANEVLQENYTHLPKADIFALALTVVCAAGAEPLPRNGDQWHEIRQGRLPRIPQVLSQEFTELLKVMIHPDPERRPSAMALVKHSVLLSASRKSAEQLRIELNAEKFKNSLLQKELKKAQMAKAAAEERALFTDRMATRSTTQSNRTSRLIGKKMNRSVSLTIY
T5 sequence (Q96SW2 whole entry): as the sequence (Q96SW2 whole entry) above
T5 sequence (Q16531 whole entry partner): as the sequence (Q16531 whole entry partner) above

Compound | substrate protein remaining % IKZF3 [1] | substrate protein remaining % IKZF2 [2] | substrate protein remaining % GSPT1 [3] | substrate protein remaining % IKZF1 [4] | substrate protein remaining % WEE1 [5] | substrate protein remaining % CK1α [6]
CC1(C)CCC(CN2CCN(Cc3ccc4c(c3)CN(N3CCC(=O)NC3=O)C4=O)C(C(F)(F)F)C2)=C(c2ccc(Cl)cc2)C1 (stereo not drawn) [GT-07296, 1-(5-((4-((4'-chloro-5,5-dimethyl-3,4,5,6-tetrahydro-[1,1'-biphenyl]-2-yl)methyl)-2-(trifluoromethyl)piperazin-1-yl)methyl)-1-oxoisoindolin-2-yl)dihydropyrimidine-2,4(1H,3H)-dione] | B (80%< substrate protein remaining %≤ 100%) | B (80%< substrate protein remaining %≤ 100%) | A (0% ≤ substrate protein remaining % ≤ 80%) | A (0% ≤ substrate protein remaining % ≤ 80%) | A (0% ≤ substrate protein remaining % ≤ 80%) | A (0% ≤ substrate protein remaining % ≤ 80%)
O=C1CCN(N2Cc3cc(CN4CCN(CC5=C(c6ccc(F)cc6)CCCC5)CC4)ccc3C2=O)C(=O)N1 [GT-07297, 1-(5-((4-((4'-fluoro-3,4,5,6-tetrahydro-[1,1'-biphenyl]-2-yl)methyl)piperazin-1-yl)methyl)-1-oxoisoindolin-2-yl)dihydropyrimidine-2,4(1H,3H)-dione] | A (0% ≤ substrate protein remaining % ≤ 80%) | A (0% ≤ substrate protein remaining % ≤ 80%) | A (0% ≤ substrate protein remaining % ≤ 80%) | B (80%< substrate protein remaining %≤ 100%) | A (0% ≤ substrate protein remaining % ≤ 80%) | A (0% ≤ substrate protein remaining % ≤ 80%)
CC1(C)CCC(CN2CC3CCC2CN3Cc2ccc3c(c2)C(=O)N(N2CCC(=O)NC2=O)C3=O)=C(c2ccc(Cl)cc2)C1 (stereo not drawn) [GT-07300, 5-((5-((4'-chloro-5,5-dimethyl-3,4,5,6-tetrahydro-[1,1'-biphenyl]-2-yl)methyl)-2,5-diazabicyclo[2.2.2]octan-2-yl)methyl)-2-(2,4-dioxotetrahydropyrimidin-1(2H)-yl)isoindoline-1,3-dione] | B (80%< substrate protein remaining %≤ 100%) | B (80%< substrate protein remaining %≤ 100%) | B (80%< substrate protein remaining %≤ 100%) | B (80%< substrate protein remaining %≤ 100%) | A (0% ≤ substrate protein remaining % ≤ 80%) | B (80%< substrate protein remaining %≤ 100%)
CC1(C)CCC(CN2CCN(Cc3ccc4c(c3)C(=O)N(N3CCC(=O)NC3=O)C4=O)C(C(F)(F)F)C2)=C(c2ccc(Cl)cc2)C1 (stereo not drawn) [GT-07301, 5-((4-((4'-chloro-5,5-dimethyl-3,4,5,6-tetrahydro-[1,1'-biphenyl]-2-yl)methyl)-2-(trifluoromethyl)piperazin-1-yl)methyl)-2-(2,4-dioxotetrahydropyrimidin-1(2H)-yl)isoindoline-1,3-dione] | B (80%< substrate protein remaining %≤ 100%) | B (80%< substrate protein remaining %≤ 100%) | A (0% ≤ substrate protein remaining % ≤ 80%) | B (80%< substrate protein remaining %≤ 100%) | B (80%< substrate protein remaining %≤ 100%) | B (80%< substrate protein remaining %≤ 100%)
O=C1CCN(N2C(=O)c3ccc(CN4CCN(CC5=C(c6ccc(F)cc6)CCCC5)CC4)cc3C2=O)C(=O)N1 [GT-07302, 2-(2,4-dioxotetrahydropyrimidin-1(2H)-yl)-5-((4-((4'-fluoro-3,4,5,6-tetrahydro-[1,1'-biphenyl]-2-yl)methyl)piperazin-1-yl)methyl)isoindoline-1,3-dione] | B (80%< substrate protein remaining %≤ 100%) | B (80%< substrate protein remaining %≤ 100%) | B (80%< substrate protein remaining %≤ 100%) | B (80%< substrate protein remaining %≤ 100%) | A (0% ≤ substrate protein remaining % ≤ 80%) | B (80%< substrate protein remaining %≤ 100%)
CC1(C)CC(c2ccc(Cl)cc2)=C(CN2CCN(Cc3ccc4c(c3)C(=O)N(N3CCC(=O)NC3=O)C4=O)CC2)CO1 [GT-07304, 5-((4-((4-(4-chlorophenyl)-6,6-dimethyl-5,6-dihydro-2H-pyran-3-yl)methyl)piperazin-1-yl)methyl)-2-(2,4-dioxotetrahydropyrimidin-1(2H)-yl)isoindoline-1,3-dione] | B (80%< substrate protein remaining %≤ 100%) | B (80%< substrate protein remaining %≤ 100%) | A (0% ≤ substrate protein remaining % ≤ 80%) | B (80%< substrate protein remaining %≤ 100%) | B (80%< substrate protein remaining %≤ 100%) | A (0% ≤ substrate protein remaining % ≤ 80%)
Cc1ccsc1C1CCN(Cc2ccc3c(c2)CN(N2CCC(=O)NC2=O)C3=O)CC1 [GT-07305, 1-(5-((4-(3-methylthiophen-2-yl)piperidin-1-yl)methyl)-1-oxoisoindolin-2-yl)dihydropyrimidine-2,4(1H,3H)-dione] | A (0% ≤ substrate protein remaining % ≤ 80%) | A (0% ≤ substrate protein remaining % ≤ 80%) | A (0% ≤ substrate protein remaining % ≤ 80%) | B (80%< substrate protein remaining %≤ 100%) | B (80%< substrate protein remaining %≤ 100%) | B (80%< substrate protein remaining %≤ 100%)
Cc1ccsc1C1CCN(Cc2ccc3c(c2)C(=O)N(N2CCC(=O)NC2=O)C3=O)CC1 [GT-07306, 2-(2,4-dioxotetrahydropyrimidin-1(2H)-yl)-5-((4-(3-methylthiophen-2-yl)piperidin-1-yl)methyl)isoindoline-1,3-dione] | A (0% ≤ substrate protein remaining % ≤ 80%) | B (80%< substrate protein remaining %≤ 100%) | A (0% ≤ substrate protein remaining % ≤ 80%) | B (80%< substrate protein remaining %≤ 100%) | B (80%< substrate protein remaining %≤ 100%) | B (80%< substrate protein remaining %≤ 100%)
CC1(C)CCC(CN2CC3CC2CN3Cc2ccc3c(c2)CN(N2CCC(=O)NC2=O)C3=O)=C(c2ccc(Cl)cc2)C1 (stereo not drawn) [GT-07329, 1-(5-((5-((4'-chloro-5,5-dimethyl-3,4,5,6-tetrahydro-[1,1'-biphenyl]-2-yl)methyl)-2,5-diazabicyclo[2.2.1]heptan-2-yl)methyl)-1-oxoisoindolin-2-yl)dihydropyrimidine-2,4(1H,3H)-dione] | B (80%< substrate protein remaining %≤ 100%) | B (80%< substrate protein remaining %≤ 100%) | A (0% ≤ substrate protein remaining % ≤ 80%) | B (80%< substrate protein remaining %≤ 100%) | A (0% ≤ substrate protein remaining % ≤ 80%) | B (80%< substrate protein remaining %≤ 100%)
CC1(C)CCC(CN2CC3CCC(C2)N3Cc2ccc3c(c2)CN(N2CCC(=O)NC2=O)C3=O)=C(c2ccc(Cl)cc2)C1 [GT-07330, 1-(5-((3-((4'-chloro-5,5-dimethyl-3,4,5,6-tetrahydro-[1,1'-biphenyl]-2-yl)methyl)-3,8-diazabicyclo[3.2.1]octan-8-yl)methyl)-1-oxoisoindolin-2-yl)dihydropyrimidine-2,4(1H,3H)-dione] | A (0% ≤ substrate protein remaining % ≤ 80%) | A (0% ≤ substrate protein remaining % ≤ 80%) | A (0% ≤ substrate protein remaining % ≤ 80%) | A (0% ≤ substrate protein remaining % ≤ 80%) | A (0% ≤ substrate protein remaining % ≤ 80%) | B (80%< substrate protein remaining %≤ 100%)
CC1(C)CCC(CN2CC3CCC2CN3Cc2ccc3c(c2)CN(N2CCC(=O)NC2=O)C3=O)=C(c2ccc(Cl)cc2)C1 (stereo not drawn) [GT-07331, 1-(5-((5-((4'-chloro-5,5-dimethyl-3,4,5,6-tetrahydro-[1,1'-biphenyl]-2-yl)methyl)-2,5-diazabicyclo[2.2.2]octan-2-yl)methyl)-1-oxoisoindolin-2-yl)dihydropyrimidine-2,4(1H,3H)-dione] | A (0% ≤ substrate protein remaining % ≤ 80%) | B (80%< substrate protein remaining %≤ 100%) | A (0% ≤ substrate protein remaining % ≤ 80%) | A (0% ≤ substrate protein remaining % ≤ 80%) | A (0% ≤ substrate protein remaining % ≤ 80%) | A (0% ≤ substrate protein remaining % ≤ 80%)
